Some test systems named below: HOP-92 NSCLC; T-47D breast; CCRF-CEM leukemia; TK-10 renal; HS 578T breast; EKVX NSCLC; NCI-H460 lung; SK-OV-3 ovarian; SF-539 CNS; HCT-116 colon; NCI-H23 lung.
Assay in all cases: growth of human tumour cells (NCI), 48 h

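Briefly, cells in 96-well plates were exposed to five compound concentrations for 48 h, and endpoints were estimated by linear interpolation. GI50 = concentration required for 50% inhibition of growth. TGI marks complete inhibition of growth.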

Among the data in PubChem BioAssay (NCI) are GI50 and TGI values, retold here.

Turning to `Cc1ccncc1.F[B-](F)(F)F.[Pt+2].c1ccc(-c2cccc(-c3ccccn3)n2)nc1`, the GI50 in the test on HOP-92 NSCLC is 10.2 µM. The TGI is more than 100 µM in the test with HOP-92 NSCLC; 42.9 µM with T-47D breast; more than 100 µM with CCRF-CEM leukemia; 28.5 µM in the test with TK-10 renal; more than 45 µM in the test with HS 578T breast; more than 73.5 µM with EKVX NSCLC. For the same compound, the TGI in the test with NCI-H460 lung was 23.3 µM; with SK-OV-3 ovarian it was 17.6 µM; with SF-539 CNS, 15.1 µM; with HCT-116 colon, more than 100 µM; in the test on NCI-H23 lung, more than 88 µM.
`Clc1ccc(Cc2nc3ccccc3nc2-c2cccc(Br)c2)cc1`: the TGI in the test on HOP-92 NSCLC amounted to 1.36 µM; with T-47D breast, 4.54 µM; in the test on CCRF-CEM leukemia, 5.04 µM; in the test with TK-10 renal, 30.4 µM; in the test with HS 578T breast it was 3.57 µM; in the test with EKVX NSCLC, 28.9 µM. Also, the TGI amounted to 42.2 µM with NCI-H460 lung; 31.2 µM in the test on SK-OV-3 ovarian; 5.23 µM with SF-539 CNS; 3.5 µM in the test on HCT-116 colon; 26.6 µM in the test with NCI-H23 lung.
As to `COc1cccc(CC(C)NCC(O)c2ccc(O)c(O)c2)c1` (stereo unspecified), the TGI with HOP-92 NSCLC, with T-47D breast, in the test with CCRF-CEM leukemia, in the test on TK-10 renal, in the test on HS 578T breast and in the test with EKVX NSCLC was more than 100 µM each time. For the same compound, the TGI in the test on NCI-H460 lung, in the test with SK-OV-3 ovarian, with SF-539 CNS, with HCT-116 colon and with NCI-H23 lung was more than 100 µM each time.
Consider `CCOC(=O)c1c(CN2CCNCC2)nc2ccccc2c1-c1ccccc1`, for which the TGI with HOP-92 NSCLC was determined as 17.7 µM; with T-47D breast it was 30 µM; in the test with CCRF-CEM leukemia, 38.2 µM; in the test on TK-10 renal, 27.3 µM; in the test on HS 578T breast, 35.9 µM; in the test with EKVX NSCLC, 29.3 µM. Moreover, the TGI in the test on NCI-H460 lung was 28.4 µM; in the test on SK-OV-3 ovarian, 30.1 µM; with SF-539 CNS, 34.8 µM; in the test with HCT-116 colon, 23.7 µM; in the test with NCI-H23 lung, 36 µM.
Take `O=[N+]([O-])c1c(Br)cc(Br)c2c1Nc1c(ccc(Cl)c1Cl)S2`: the TGI is 34.3 µM in the test on HOP-92 NSCLC; 29.9 µM in the test on T-47D breast; 7.49 µM with CCRF-CEM leukemia; 37.1 µM in the test with TK-10 renal; more than 100 µM in the test on HS 578T breast; 30.9 µM with EKVX NSCLC. For the same compound, the TGI worked out at 41.4 µM in the test on NCI-H460 lung; 43 µM in the test with SK-OV-3 ovarian; 41.2 µM in the test with SF-539 CNS; 19.1 µM in the test on HCT-116 colon; 29.6 µM in the test on NCI-H23 lung.
Regarding `CCOP(=O)(OCC)C(Nc1cccc(F)c1)c1ccccc1` (stereo unspecified), the TGI in the test with HOP-92 NSCLC, in the test with T-47D breast, in the test on CCRF-CEM leukemia, in the test on TK-10 renal, in the test with HS 578T breast and in the test on EKVX NSCLC was more than 100 µM in each case. Further, the TGI in the test on NCI-H460 lung, in the test with SK-OV-3 ovarian, in the test with SF-539 CNS, with HCT-116 colon and in the test with NCI-H23 lung was more than 100 µM in each case.
As to `COc1cc2c(cc1OCCCC(=O)Nc1cc(C(=O)Nc3cc(C(=O)Nc4cc(C(=O)NCCCN(C)C)n(C)n4)n(C)n3)n(C)n1)N=CC1CCCN1C2=O` (stereo unspecified), the TGI in the test with HOP-92 NSCLC was more than 100 µM; with T-47D breast it was more than 100 µM; in the test with CCRF-CEM leukemia, more than 100 µM; with TK-10 renal it was 40.7 µM; in the test on HS 578T breast, 79.7 µM; with EKVX NSCLC, more than 100 µM. The TGI is more than 100 µM with NCI-H460 lung; more than 100 µM in the test with SK-OV-3 ovarian; more than 100 µM in the test with SF-539 CNS; more than 100 µM in the test on HCT-116 colon; 66.5 µM in the test on NCI-H23 lung.
In the case of `Nc1ncnc2c1ncn2C1CCC(COS(N)(=O)=O)C1` (stereo unspecified), the TGI with HOP-92 NSCLC, in the test on T-47D breast, in the test on CCRF-CEM leukemia, in the test with TK-10 renal, in the test with HS 578T breast and with EKVX NSCLC was more than 100 µM in each case. The TGI in the test on NCI-H460 lung, with SK-OV-3 ovarian, in the test with SF-539 CNS, with HCT-116 colon and in the test on NCI-H23 lung was more than 100 µM throughout.
With `O=[N+]([O-])c1ccc2nc(-c3ccccn3)c(-c3ccccn3)nc2c1`, the TGI with HOP-92 NSCLC, in the test on T-47D breast, in the test on CCRF-CEM leukemia, in the test with TK-10 renal, in the test with HS 578T breast and in the test with EKVX NSCLC was more than 100 µM throughout. Moreover, the TGI with NCI-H460 lung, with SK-OV-3 ovarian, with SF-539 CNS, with HCT-116 colon and in the test with NCI-H23 lung was more than 100 µM in each case.
As for `NC(=S)N/N=C\c1ccc(OCc2cccc(COc3ccc(/C=N/NC(N)=S)cc3)n2)cc1`, the TGI in the test with HOP-92 NSCLC was more than 100 µM; in the test on T-47D breast, 0.921 µM; with CCRF-CEM leukemia, more than 100 µM; with TK-10 renal it was more than 100 µM; with HS 578T breast, more than 100 µM; in the test with EKVX NSCLC, more than 100 µM. Also, the TGI with NCI-H460 lung, in the test on SK-OV-3 ovarian, in the test with SF-539 CNS, in the test with HCT-116 colon and in the test with NCI-H23 lung was more than 100 µM each time.
For `COC(=O)[C@H]1[C@@H](C(C)C)O[C@@H](C(C)C)O[C@H]1C(F)(F)F`, the TGI with HOP-92 NSCLC, with T-47D breast, with CCRF-CEM leukemia, with TK-10 renal, with HS 578T breast and in the test on EKVX NSCLC was more than 100 µM throughout. Also, the TGI with NCI-H460 lung, in the test with SK-OV-3 ovarian, in the test on SF-539 CNS, in the test on HCT-116 colon and in the test with NCI-H23 lung was more than 100 µM throughout.
Regarding `Cc1ccc(C(=O)O)c(CC2Cc3c(C)cccc3C2=O)c1` (stereo unspecified), the TGI in the test with HOP-92 NSCLC, with T-47D breast, with CCRF-CEM leukemia, with TK-10 renal, in the test with HS 578T breast and in the test on EKVX NSCLC was more than 100 µM throughout. In addition, the TGI in the test on NCI-H460 lung, in the test on SK-OV-3 ovarian, in the test on SF-539 CNS, in the test on HCT-116 colon and in the test with NCI-H23 lung was more than 100 µM in each case.
For the compound `C(=C\c1cccc(/C=C/c2ccccn2)n1)/c1ccccn1`, the TGI in the test with HOP-92 NSCLC was more than 100 µM; in the test on T-47D breast it was more than 100 µM; in the test with CCRF-CEM leukemia, more than 100 µM; in the test with TK-10 renal it was more than 100 µM; in the test with HS 578T breast it was 44.3 µM; with EKVX NSCLC, more than 100 µM. Besides, the TGI in the test with NCI-H460 lung, with SK-OV-3 ovarian, with SF-539 CNS, in the test on HCT-116 colon and in the test on NCI-H23 lung was more than 100 µM throughout.
For `Cc1ccc(S(=O)(=O)NNC(=O)c2cc(C)ccc2NC(=O)C23CC4CC(CC(C4)C2)C3)cc1`, the TGI is 91.5 µM in the test on HOP-92 NSCLC; more than 100 µM with T-47D breast; more than 100 µM in the test on CCRF-CEM leukemia; more than 100 µM in the test with TK-10 renal; more than 100 µM in the test on HS 578T breast; more than 100 µM in the test on EKVX NSCLC. The TGI is more than 100 µM in the test with NCI-H460 lung; 68.5 µM with SK-OV-3 ovarian; more than 100 µM in the test with SF-539 CNS; more than 100 µM in the test with HCT-116 colon; more than 100 µM in the test on NCI-H23 lung.
As to `O=C1C=CC(=O)C(CNc2ccc(C(=O)OC34CC5CC(CC(C5)C3)C4)cc2)=C1`, the TGI with HOP-92 NSCLC is 13.7 µM; with T-47D breast, 6.88 µM; in the test on CCRF-CEM leukemia, more than 20.4 µM; with TK-10 renal, 23.8 µM; with HS 578T breast it was 10.9 µM; in the test with EKVX NSCLC it was 25.3 µM. Further, the TGI in the test with NCI-H460 lung is 32.9 µM; in the test with SK-OV-3 ovarian, more than 57.4 µM; with SF-539 CNS, 8.89 µM; in the test on HCT-116 colon, 22.5 µM; in the test with NCI-H23 lung, 25.4 µM.
